Assay results: US20180209956A1, “HTS Assay for Identifying Small Molecule Inhibitors of RAD52 and Uses of Identified Small Molecule Inhibitors for Treatment and Prevention of BRCA-Deficient Malignancies” (University of Iowa Research Foundation, priority 2015, published 2018)

Key:
[1] = molecular target: T1, interaction between RAD52 and RPA proteins (Homo sapiens, UniProt P43351); assay: Ni-NTA pull-down of RAD52 and RPA; format: binding; settings: 3 μM RAD52, 3 μM RPA, 3 μM compound
T1 construct: made in house

RAD52 = molecular target: T2, RAD52 (Homo sapiens, UniProt P43351); assay: WaterLOGSY NMR analysis of compound binding to RAD52; parameters: made in house; settings: 20 or 40 μM compound, 3.3 μM RAD52
T2 sequence (P43351 1-418): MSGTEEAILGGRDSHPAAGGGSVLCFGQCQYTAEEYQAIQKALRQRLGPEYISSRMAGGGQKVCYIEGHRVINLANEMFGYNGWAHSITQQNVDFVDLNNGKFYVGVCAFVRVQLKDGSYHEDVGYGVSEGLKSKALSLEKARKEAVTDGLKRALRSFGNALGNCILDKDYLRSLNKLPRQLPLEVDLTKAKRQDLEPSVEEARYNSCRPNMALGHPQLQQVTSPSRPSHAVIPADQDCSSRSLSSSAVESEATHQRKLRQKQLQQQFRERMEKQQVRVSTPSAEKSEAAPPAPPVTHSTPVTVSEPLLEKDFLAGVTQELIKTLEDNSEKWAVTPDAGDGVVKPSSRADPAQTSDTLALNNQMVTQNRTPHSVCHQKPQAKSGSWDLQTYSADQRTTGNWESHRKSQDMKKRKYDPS
Experimental: In WaterLOGSY spectrum, if a compound binds to a protein, the compound will receive negative nuclear Overhauser effects (NOEs) due to the slow tumbling of the protein-compound complex, leading to a positive WaterLOGSY peak.
WaterLOGSY NMR analysis of the compound binding to RAD52 and RPA proteins: Compound binding to RAD52 and RPA proteins was analyzed using water-ligand observation with gradient spectroscopy (WaterLOGSY) NMR experiments (Dalvit et al., 2001, Dalvit et al., 2000). The WaterLOGSY spectra of compounds in the presence of RAD52 or RPA were acquired using a water NOE mixing time of 1 s and a T2 relaxation filter of 50 ms just before data acquisition to suppress the broad signals derived from protein. The protein buffer used in the experiments contains 10 mM Tris-d11, 75 mM KCl, 0.25 mM EDTA, pH 7.5, and 10% D20. All NMR data were acquired on a Bruker Avance II 800 MHz NMR spectrometer equipped with a sensitive cryoprobe and recorded at 25° C. The ^1H chemical shifts were referenced to 2,2-dimethyl-2-silapentane-5-sulfonate (DSS). NMR spectra were processed using NMR Pipe (Delaglio et al., 1995) and analysed using NMR View (Johnson and Blevins, 1994).

RAD52-dsDNA interaction = molecular target: T3, RAD52-dsDNA interaction (Homo sapiens, UniProt P43351); assay: FRET-based RAD52-dsDNA binding assay; settings: 1 nM dsDNA, 10 nM RAD52
T3 construct: made in house
T3 sequence (P43351 1-418): T2 sequence (P43351 1-418)
Description: These assays utilize two complementary single stranded 28-nucleotide-long substrates, which contain either Cy3 (T-28) or Cy5 (P-28) incorporated into the middle of the respective DNA strand. When the substrates are annealed by RAD52, the Cy3 and Cy5 dyes are separated by 3 base pairs and yield a high FRET signal (FIG. 2 Supplement 2). […] The annealing reactions were initiated by mixing two half reactions and observing the change in FRET over time in the presence of varying concentrations of small molecules. An increasing FRET value over time indicates formation of the dsDNA duplex which brings the two dyes in close proximity (FIG. 2 Supplement 2). Fitting the annealing data to a double exponential allowed us to calculate and compare the final extent of annealing at varying concentrations of each compound compared to RAD52 alone. We plotted the final extent of annealing vs the concentration of the compound and calculated an IC50 of annealing inhibition.
where FRET0 is the initial FRET value of RAD52-ssDNA complex in the absence of the compound and FRETmin is the FRET value at complete inhibition. FRET values were calculated as an average of three or more independent annealing reactions plotted against the concentration of the compound. […]

GM01604 cells [2] = assay: Anaphase bridges after aphidicolin (MUS81 activity); format: cell-based, human; settings: aphidicolin 24 h, increasing concentration of compound
Experimental: Forty eight hours after transfection the fibroblasts were lysed and analysed by WB with the indicated antibodies. b) Forty eight hours after transfection, GM01604 cells were exposed to […] aphidicolin (APH) for 24 h in the presence (grey bars) or absence (white bars) of increasing concentration of ‘1’ added in the last 3 h before aphidicolin treatment. Results are presented as mean±SEM from two independent replicates. c) The presence of anaphase bridges, as shown in the representative images, was scored in DAPI-stained cells. The white bars indicate 10 μm.

GM01604 cells [3] = assay: LIVE/DEAD cell viability assay; format: cell-based, human; settings: for Dead cells: MUS81-depleted cells
Experimental: Cell Viability Live/Dead Assays: GM01604 cells were transfected with siRNAs directed against GFP (Ctrl), or against MUS81 (Qiagen), BRCA2 (Sigma-Aldrich), and RAD52 (Qiagen) 48 hours prior to addition of 1 μM ‘1’. Where indicated, the conditions of pathological replication were induced by treating cells with 2 mM HU and 300 nM UCN01 for 6 h or by a 18 hours treatment with 2 mM HU, in the presence or absence of ‘1’. Viability was evaluated by the LIVE/DEAD assay (Sigma-Aldrich) according to the manufacturer's instructions. Cell number was counted in randomly chosen fields and expressed as percent of dead cells (number of red nuclear stained cells divided by the total cell number) corrected for the cell loss observed in the population. For each time point, at least 200 cells were counted.

T1 sequence (P27694 whole entry partner, one chain of several): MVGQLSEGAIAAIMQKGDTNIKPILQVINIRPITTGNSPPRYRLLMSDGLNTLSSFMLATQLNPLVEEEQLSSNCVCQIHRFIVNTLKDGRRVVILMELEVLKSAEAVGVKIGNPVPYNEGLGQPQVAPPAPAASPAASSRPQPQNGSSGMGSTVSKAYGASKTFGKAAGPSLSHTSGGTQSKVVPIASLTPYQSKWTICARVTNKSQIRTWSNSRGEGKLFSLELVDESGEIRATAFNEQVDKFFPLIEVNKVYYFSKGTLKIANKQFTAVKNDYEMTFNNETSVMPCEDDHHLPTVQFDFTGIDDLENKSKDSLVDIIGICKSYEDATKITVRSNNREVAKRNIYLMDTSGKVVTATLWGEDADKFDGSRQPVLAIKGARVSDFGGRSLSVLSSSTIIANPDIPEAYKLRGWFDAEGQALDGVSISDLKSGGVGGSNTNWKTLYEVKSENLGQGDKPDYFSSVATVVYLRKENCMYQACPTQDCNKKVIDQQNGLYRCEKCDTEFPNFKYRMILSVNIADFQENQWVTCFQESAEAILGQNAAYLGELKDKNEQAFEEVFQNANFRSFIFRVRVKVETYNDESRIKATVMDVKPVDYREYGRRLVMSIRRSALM
T1 sequence (P15927 whole entry partner, one chain of several): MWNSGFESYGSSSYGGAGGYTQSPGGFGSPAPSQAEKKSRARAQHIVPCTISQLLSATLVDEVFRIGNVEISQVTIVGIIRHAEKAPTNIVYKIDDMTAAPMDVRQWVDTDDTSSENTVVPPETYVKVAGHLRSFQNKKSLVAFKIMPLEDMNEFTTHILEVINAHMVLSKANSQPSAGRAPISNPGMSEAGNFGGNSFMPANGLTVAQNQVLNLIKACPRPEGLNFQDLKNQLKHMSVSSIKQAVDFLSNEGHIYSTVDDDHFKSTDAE
T1 sequence (P35244 whole entry partner, one chain of several): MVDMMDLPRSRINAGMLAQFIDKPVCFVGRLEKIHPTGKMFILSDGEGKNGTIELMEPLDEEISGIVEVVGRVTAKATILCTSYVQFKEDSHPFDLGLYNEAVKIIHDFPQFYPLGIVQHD

Effect on the interaction between RAD52 and RPA proteins [1] | Binding to RAD52 by WaterLOGSY (RAD52) | Effect on the RAD52-dsDNA interaction (RAD52-dsDNA interaction) | SMILES | Effect on MUS81 activity (anaphase bridges) (GM01604 cells [2]) | Cell death after prolonged replication arrest (GM01604 cells [3]; BRCA2-depleted cells, HU 18 h) | Cell death (GM01604 cells [3]; BRCA2-depleted cells, after replication stress, 1 μM compound) [%] | Cell death after HU+UCN01 (GM01604 cells [3]; Ctrl siRNA cells, 1 μM compound) | Dead cells (GM01604 cells [3]; checkpoint-deficient, HU treated, 1 μM compound) [%] | Dead cells (GM01604 cells [3]; untreated, 1 μM compound)
no effect | positive WaterLOGSY peaks | able to displace dsDNA | O=C(O[C@@H]1Cc2c(O)cc(O)cc2O[C@@H]1c1cc(O)c(O)c(O)c1)c1cc(O)c(O)c(O)c1 [Compound 6, Epigallocatechin-3-monogallate] |  |  |  |  |  | 
 |  |  | Oc1cc(O)c2c(c1)O[C@H](c1cc(O)c(O)c(O)c1)[C@H](O)C2 [Compound ‘1’, (−)-Epigallocatechin] | does not affect MUS81 activity | substantial increase in cell death | ~80 | potentiated the effect of the combined HU+UCN01 treatment | ~60 | approximately 40%
